In US8575211B2, “Synergistic combination of analgesic compounds” (Biocodex, priority 2008, dated 2013):
Counter-ions that a name gives are not always drawn. Like-named read-outs stand apart in the source and are kept apart here.

Tests used:
[1] = system: abdominal cramps induced in mice by acetic acid; conditions: oral route, cited from earlier work
[2] = system: abdominal cramps induced in mice by acetic acid; assay: abdominal cramps induced in mice by intraperitoneal acetic acid, products by the subcutaneous route; type: in vivo; conditions: for ED50: Mus musculus, product alone, subcutaneous, 30 min before acetic acid i.p., read-out: ED50 (dose producing 50% reduction in the number of cramps)
Procedure: The analgesic effect of a nefopam-ibuprofen combination was studied in the model of abdominal cramps induced in mice by the intraperitoneal administration of acetic acid. This model of pain induced by a chemical substance corresponds to acute, visceral, inflammatory pain. Male CD1 mice (C. River breed) weighing from 25 to 30 grams are used after an acclimatization of at least 7 days in the animal facility (t°=22±2; hygrometry=50±20%; food […]-darkness: […])). On the day of the experiment, the non-fasting mice are weighed, marked and divided at random into groups of 10. The acetic acid solution (Sigma) is prepared at 0.6% (0.1 ml/10 g) i.e. 60 mg of acetic acid in 10 ml of NaCl at 0.9%. At t=0, the mouse receives the product under study or the carrier liquid by the subcutaneous route (0.1 ml/10 g). At t=30 minutes, the acetic acid is injected by the intraperitoneal route (0.1 ml/10 g). A count is taken of the number of abdominal cramps from 5 to 20 minutes after the injection of acetic acid. Clear abdominal cramps characterized by stretching of the hind paws and/or hollowing of the flanks with writhing are regarded as positive. Nefopam hydrochloride (Biocodex, lot 38) (referred to hereinafter simply as nefopam) is dissolved in distilled water or in NaCl at 0.9%. The ibuprofen (Sigma, ref 1-4883) is suspended in Tween 80 at 1%. The test used is a variance analysis based on 3 groups and a Student's t test for 2 groups. The treated group(s) that differ(s) from the control group is (are) then determined. The effective doses for 50% antinociceptive effect (ED50) are calculated using the PharmToolsPro program (version 1.1.27, […] Group Inc.) in accordance with the Tallarida (2000) method Drugs synergism and dose-effect data analysis CRC Press). At least 10 mice are used for each dose, and at least 3 doses are used to determine the dose-response curve. The dose that produces 50% antinociceptive effect (50% reduction in the number of cramps) is calculated by a standard linear regression analysis of the dose-response curve. The interaction is evaluated by an isobolographic analysis of the co-administration of a combination of doses at a fixed ratio according to Tallarida (2000) op. cit., Tallarida et al. (1989) Life Sci. 45:947-961 and Tallarida et al. (1997) Life Sci. 61:PL417-PL425. The isobologram is constructed by joining the ED50 of the ibuprofen with that of the nefopam in order to obtain the additivity line. The ED50 of the combination is determined by linear regression analysis of the dose-response curve and it is compared by at test with a theoretical additive ED50 obtained using the PharmToolsPro software.

CC(C)Cc1ccc(C(C)C(=O)O)cc1 (stereo not shown) [Ibuprofen, ibuprofen]
dose from which antinociceptive activity is significant ([1]; Dolezal & Kusiak (2002)): ≥ 30 mg/kg | ED50 ([1]; Jones et al. (2005)): 95 mg/kg | ED50 [2]: 18.6 ± 2.4 mg/kg | % variation of number of cramps ([2]; ibuprofen 1 mg/kg s.c.): +7% | Number of cramps (mean ± sem) ([2]; ibuprofen 1 mg/kg s.c.): 40.2 ± 3.2 | % variation of number of cramps ([2]; ibuprofen 3 mg/kg s.c.): +14% | Number of cramps (mean ± sem) ([2]; ibuprofen 3 mg/kg s.c.): 43.0 ± 6.6 | % variation of number of cramps ([2]; ibuprofen 10 mg/kg s.c.): −29% | Number of cramps (mean ± sem) ([2]; ibuprofen 10 mg/kg s.c.): 26.8 ± 3.9 | % variation of number of cramps ([2]; ibuprofen 20 mg/kg s.c.): −41% | Number of cramps (mean ± sem) ([2]; ibuprofen 20 mg/kg s.c.): 22.0 ± 2.0 | % variation of number of cramps ([2]; ibuprofen 30 mg/kg s.c.): −68% | Number of cramps (mean ± sem) ([2]; ibuprofen 30 mg/kg s.c.): 12.1 ± 2.7 | % variation of number of cramps ([2]; ibuprofen 50 mg/kg s.c.): −84% | Number of cramps (mean ± sem) ([2]; ibuprofen 50 mg/kg s.c.): 5.9 ± 1.3 | % variation of number of cramps ([2]; ibuprofen 100 mg/kg s.c.): −84% | Number of cramps (mean ± sem) ([2]; ibuprofen 100 mg/kg s.c.): 6.0 ± 1.4

CN1CCOC(c2ccccc2)c2ccccc2C1 (stereo not shown) [Nefopam, Nefopam hydrochloride]
ED50 [2]: 2.4 ± 0.215 mg/kg | % variation of number of cramps ([2]; nefopam 0.3 mg/kg s.c.): −9% | Number of cramps (mean ± sem) ([2]; nefopam 0.3 mg/kg s.c.): 33.6 ± 3.8 | % variation of number of cramps ([2]; nefopam 1.0 mg/kg s.c.): −25% | Number of cramps (mean ± sem) ([2]; nefopam 1.0 mg/kg s.c.): 28.0 ± 6.3 | % variation of number of cramps ([2]; nefopam 3.0 mg/kg s.c.): −55% | Number of cramps (mean ± sem) ([2]; nefopam 3.0 mg/kg s.c.): 16.7 ± 2.0 | % variation of number of cramps ([2]; nefopam 10.0 mg/kg s.c.): −81% | Number of cramps (mean ± sem) ([2]; nefopam 10.0 mg/kg s.c.): 7.1 ± 1.7 | % variation of number of cramps ([2]; nefopam 20.0 mg/kg s.c.): −98% | Number of cramps (mean ± sem) ([2]; nefopam 20.0 mg/kg s.c.): 0.6 ± 0.3
